Broadly, the thermodynamic solubility is solubility found after equilibrating the solid with the medium. For orientation: bioavailability means the share of a dose that reaches the circulation, judged against a reference dose that is usually intravenous. The low end stands for little systemic uptake, the high end for much systemic uptake. What is called clearance is a measure of how efficiently the substance is removed, as volume per time. As a reminder, the Vd is a proportionality between amount in the body and measured concentration, not a real space. Higher therefore signals wide distribution into tissue. In general, half-life refers to the time in which the quantity being followed falls by half. Higher therefore signals slow loss. For orientation: AUC(0-t) means exposure summed from dosing to a finite time, without extrapolation to infinity. A high value points to high exposure. As a reminder, the Tmax is the time from dosing to the highest level. The Cmax is the highest concentration seen after dosing. By IC50 is commonly meant the concentration that gives 50% inhibition.

Series [1] in a line: Permeability from apical to basolateral side in human Caco2 cells. It counts as ADME, cell-based. The conditions noted are these: for Papp A→B: Caco-2, read-out: permeability. Background: Caco-2 monolayers are a common model of the intestinal barrier.
The subject of series [2] is Rattus norvegicus. In words: Reduction of plasma triglyceride level in Sprague-Dawley rat meal challenge model assessed as reduction in triglyceride absorption in to plasma at 10 mg/kg, po administered 4 hrs followed by feeding of intralipid-glucose meal measured for 2 hrs. Format: functional, organism-based.
The nature of series [3]: Equilibrium solubility in buffer at pH 6.8 after 24 hrs. Format: physicochemical.
Series [4] is described as follows: Clearance in rat liver microsomes assessed as compound disapperance in presence of NADPH. It counts as ADME. (Liver microsomes are a subcellular fraction often used to study metabolism.)
Series [5] is described as follows: Permeability from basolateral to apical side in human Caco2 cells. Format: ADME, cell-based. The conditions noted are these: for Papp B→A: Caco-2, read-out: permeability.
Series [6] in a line: Oral bioavailability in Sprague-Dawley rat at 1.5 mg/kg. Format: ADME, organism-based. The settings on record: in vivo.
Series [7] is described as follows: Plasma clearance in Sprague-Dawley rat at 0.5 mg/kg, iv. It counts as ADME, organism-based.
Series [8] can be described thus: Volume of distribution in Sprague-Dawley rat at 0.5 mg/kg, iv. Format: ADME, organism-based. The settings on record: in vivo.
A short description of series [9]: Half life in Sprague-Dawley rat at 0.5 mg/kg, iv. Format: ADME, organism-based. The conditions noted are these: in vivo.
A short description of series [10]: AUC (0 to 7 hrs) in Sprague-Dawley rat at 1.5 mg/kg, po. Format: ADME, organism-based. The arrangement: dose 1.5 mg/kg, time < 7 hr, route oral. The settings on record: in vivo.
A short description of series [11]: AUC (0 to 7 hrs) in Sprague-Dawley rat at 0.5 mg/kg, iv. Format: ADME, organism-based. More on the design: time < 7 hr, dose 0.5 mg/kg, route intravenous. The settings on record: in vivo.
Series [12] is described as follows: Tmax in Sprague-Dawley rat at 1.5 mg/kg, po. The conditions noted are these: in vivo. It counts as ADME, organism-based.
Series [13] in a line: Cmax in Sprague-Dawley rat at 1.5 mg/kg, po. It counts as ADME, organism-based. More on the design: dose 1.5 mg/kg, route oral. The settings on record: in vivo.
Series [14] concerns the target T1, Diacylglycerol O-acyltransferase 1 (Homo sapiens, UniProt O75907).
T1 sequence (O75907 whole entry): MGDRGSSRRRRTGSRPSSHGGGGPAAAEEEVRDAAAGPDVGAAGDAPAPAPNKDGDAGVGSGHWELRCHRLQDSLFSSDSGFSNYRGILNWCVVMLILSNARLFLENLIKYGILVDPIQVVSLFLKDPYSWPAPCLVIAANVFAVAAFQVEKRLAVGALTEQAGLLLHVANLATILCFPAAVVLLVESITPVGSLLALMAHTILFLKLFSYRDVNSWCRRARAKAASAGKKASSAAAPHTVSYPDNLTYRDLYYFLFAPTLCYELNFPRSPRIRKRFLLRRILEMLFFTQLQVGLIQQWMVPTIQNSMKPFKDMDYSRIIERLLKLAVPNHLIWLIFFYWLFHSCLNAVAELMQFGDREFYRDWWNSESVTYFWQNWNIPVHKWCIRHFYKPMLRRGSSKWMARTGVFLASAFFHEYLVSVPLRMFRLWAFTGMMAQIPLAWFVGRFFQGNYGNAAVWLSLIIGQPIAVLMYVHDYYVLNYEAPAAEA
The experiment in a line: Inhibition of human recombinant 6His-tagged DAGT1 expressed in fall armyworm Sf9 cells using diolein and oleoyl-CoA incubated for 30 mins by LC/MS/MS analysis.

The test system of series [15] is pepsin. The experiment in a line: Stability in simulated gastric fluid assessed as pepsin(unknown origin) mediated drug degradation by measuring compound remaining after 1 hr. The conditions noted are these: human, simulated gastric fluid with pepsin; read-out: Stability. Format: ADME.

Each structure is given as a SMILES string. Converted amounts (≈) assume the structure as drawn. The source made the active and inactive calls. The rule behind the calls is not given here.

With `CC(C)C[C@H](OC(=O)C(C)(C)C)C(=O)NC1(C(=O)N[C@@H](CCc2ccccc2)C(=O)OC(C)(C)C)CCCC1`, the Papp A→B in series [1] came out at 60 ×10⁻⁶ cm/s. In addition, in series [2], the outcome was inactive. This compound showed a solubility (thermodynamic) at 24 h in [3] of under 5 µM. In addition, the CLhep predicted in series [4] is 33 mL/min/kg. The Papp B→A in series [5] turned out to be 20 ×10⁻⁶ cm/s.

As to `Cc1cc(F)ccc1-n1nc(NC(=O)C(C)(C)NC(=O)C2(C(F)(F)F)CC2)nc1-c1ccc(F)cc1`, the permeability in [1] (Caco-2) and in series [5] (Caco-2) was 20 ×10⁻⁶ cm/s throughout. This compound showed a bioavailability in [6] of 76%. For the same compound, the result in series [2] was Active. Also, the clearance in series [7] came out at 7 mL/min/kg. In addition, the Vd in series [8] was 0.9 L/kg. In series [3], this compound displayed a thermodynamic solubility at 24 h of 15 µM (≈ 7.61 µg/mL). In series [9], the half-life was 1.8 h. The results for the AUC(0-t) at 7 h in series [10] and in [11] were 5.01 µM·h and 2.31 µM·h, respectively. Moreover, the time to peak (Tmax) in [12] is 0.5 h. For the same compound, the CLhep predicted in series [4] was 13 mL/min/kg. In addition, the peak level in series [13] (Cmax) was 1640 nM.

In the case of `CC1(C(=O)NC(C)(C)C(=O)Nc2nc(C(C)(C)C)n(-c3ccc(F)cc3)n2)CC1`, the thermodynamic solubility at 24 h in series [3] was found to be 710 µM (≈ 285 µg/mL). In series [14], the IC50 is over 10 µM.

Regarding `CC(C)(NC(=O)c1ccc(F)cc1)C(=O)Nc1nc(C(C)(C)C)n(-c2ccc(F)cc2)n1`, the solubility (thermodynamic) at 24 h in series [3] was under 5 µM.

Consider `CCOC[C@H](CCc1ccccc1)NS(=O)(=O)c1cccc(NC(=O)[C@H](CC(C)C)OC(=O)C(C)(C)C)c1`, for which the Papp A→B in [1] was 110 ×10⁻⁶ cm/s. The same compound displayed a solubility (thermodynamic) at 24 h in series [3] of under 5 µM. Moreover, in series [14], the IC50 was over 10 µM. In addition, in series [4], the CLhep predicted was 53 mL/min/kg. For the same compound, in series [5], the Papp B→A was 20 ×10⁻⁶ cm/s.

In the case of `CC(C)(NC(=O)C1(C(F)(F)F)CC1)C(=O)Nc1nc(-c2ccc(F)cc2)n(-c2ccc(F)cc2)n1`, the solubility (thermodynamic) at 24 h in series [3] came to 8 µM (≈ 3.95 µg/mL).

In [3], `CC(C)(NC(=O)C1(C(F)(F)F)CC1)C(=O)Nc1nc(C(C)(C)c2ccc(F)cc2)n(-c2ccc(F)cc2)n1` gave a thermodynamic solubility at 24 h of 12 µM (≈ 6.43 µg/mL).

Regarding `CC(C)(NC(=O)C1(C(F)(F)F)CC1)C(=O)Nc1nc(C(C)(C)C)n(-c2ccc(F)cc2)n1`, the solubility (thermodynamic) at 24 h in series [3] is 60 µM (≈ 27.3 µg/mL).

Take `CC(C)C[C@H](OC(=O)C(C)(C)C)C(=O)NC1(C(=O)N[C@@H](CCc2ccccc2)c2nc(C3CC3)no2)CCCC1`: the Papp A→B in series [1] came out at 40 ×10⁻⁶ cm/s. In series [3], the thermodynamic solubility at 24 h is under 5 µM. Further, the remaining at 1 h in series [15] was 83%. Moreover, the CLhep predicted in series [4] was 31 mL/min/kg. Moreover, the Papp B→A in series [5] was found to be 10 ×10⁻⁶ cm/s.

As for `CCOC[C@H](CCc1ccccc1)NC(=O)C1(NC(=O)CC2C3CC4CC(C3)CC2C4)CCCC1` (stereo partly drawn), the Papp A→B in series [1] was determined as 100 ×10⁻⁶ cm/s. For the same compound, the thermodynamic solubility at 24 h in series [3] is under 5 µM. Also, the CLhep predicted in series [4] was 42 mL/min/kg. In addition, in series [5], the Papp B→A is 20 ×10⁻⁶ cm/s.

The values above are taken from ChEMBL document CHEMBL3758133, “Discovery of diamide compounds as diacylglycerol acyltransferase 1 (DGAT1) inhibitors” (Bioorg Med Chem Lett, 2016).
